In the supplement of paper PMC10307832:

Legend:
Assay in all cases: relative viability (nuclei count vs DMSO), 5 days (fraction); higher = more cells survive
CX-5461 + Crizotinib = compound: Cc1cnc(CNC(=O)c2c(=O)c3ccc(N4CCCN(C)CC4)nc3n3c2sc2ccccc23)cn1 [CX-5461] + C[C@@H](Oc1cc(-c2cnn(C3CCNCC3)c2)cnc1N)c1c(Cl)ccc(F)c1Cl [Crizotinib] (partner 1 µM)
Outline: (§1)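 Relative viability was taken as the ratio of nuclei in treated wells to nuclei in vehicle wells. Lung cancer cell lines in 1536-well plates received compounds by pin tool one day after seeding, either one drug alone or a fixed anchor-drug dose plus five library-drug doses (not always all listed) in √10 steps. Nuclei were counted on 4× images after 5 days of treatment, and values are medians of duplicate plates.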

IMD-0354 + Bortezomib = compound: O=C(Nc1cc(C(F)(F)F)cc(C(F)(F)F)c1)c1cc(Cl)ccc1O [IMD-0354] + CC(C)C[C@H](NC(=O)[C@H](Cc1ccccc1)NC(=O)c1cnccn1)B(O)O [Bortezomib] (partner 0.002 µM)
Outline: as §1

IMD-0354 + Vorinostat = compound: O=C(Nc1cc(C(F)(F)F)cc(C(F)(F)F)c1)c1cc(Cl)ccc1O [IMD-0354] + O=C(CCCCCCC(=O)Nc1ccccc1)NO [Vorinostat] (partner 1 µM)
Outline: as §1

CX-5461 + Palbociclib = compound: Cc1cnc(CNC(=O)c2c(=O)c3ccc(N4CCCN(C)CC4)nc3n3c2sc2ccccc23)cn1 [CX-5461] + CC(=O)c1c(C)c2cnc(Nc3ccc(N4CCNCC4)cn3)nc2n(C2CCCC2)c1=O [Palbociclib] (partner 0.5 µM)
Outline: as §1

Cell Line | relative viability (CX-5461 + Crizotinib; first compound 0.01 µM) | relative viability (CX-5461 + Crizotinib; first compound 0.03162 µM) | relative viability (CX-5461 + Crizotinib; first compound 0.1 µM) | relative viability (CX-5461 + Crizotinib; first compound 0.3162 µM) | relative viability (CX-5461 + Crizotinib; first compound 1 µM) | relative viability (IMD-0354 + Bortezomib; first compound 0.04 µM) | relative viability (IMD-0354 + Bortezomib; first compound 0.1265 µM) | relative viability (IMD-0354 + Bortezomib; first compound 0.4 µM) | relative viability (IMD-0354 + Bortezomib; first compound 1.265 µM) | relative viability (IMD-0354 + Bortezomib; first compound 4 µM) | relative viability (IMD-0354 + Vorinostat; first compound 0.04 µM) | relative viability (IMD-0354 + Vorinostat; first compound 0.1265 µM) | relative viability (IMD-0354 + Vorinostat; first compound 0.4 µM) | relative viability (IMD-0354 + Vorinostat; first compound 1.265 µM) | relative viability (IMD-0354 + Vorinostat; first compound 4 µM) | relative viability (CX-5461 + Palbociclib; first compound 0.01 µM) | relative viability (CX-5461 + Palbociclib; first compound 0.03162 µM) | relative viability (CX-5461 + Palbociclib; first compound 0.1 µM) | relative viability (CX-5461 + Palbociclib; first compound 0.3162 µM) | relative viability (CX-5461 + Palbociclib; first compound 1 µM)
LCLC-103H | 1.12 | 1.08 | 1.13 | 1.04 | 1.08 | 1.14 | 1.02 | 0.939 | 0.847 | 0.252 | 0.79 | 0.706 | 0.539 | 0.364 | 0.287 | 0.496 | 0.493 | 0.458 | 0.466 | 0.464
LOU-NH91 | 0.756 | 0.784 | 0.745 | 0.728 | 0.759 | 0.5 | 0.498 | 0.492 | 0.303 | 0.319 | 1.03 | 0.709 | 0.164 | 0.173 | 0.201 | 0.516 | 0.557 | 0.513 | 0.439 | 0.478
LU99A | 0.571 | 0.552 | 0.495 | 0.344 | 0.453 | 0.878 | 1.19 | 0.625 | 0.281 | 0.186 | 0.417 | 0.498 | 0.375 | 0.2 | 0.162 | 0.411 | 0.434 | 0.389 | 0.322 | 0.416
LXF-289 | 0.805 | 0.882 | 0.823 | 0.399 | 0.725 | 1.03 | 0.833 | 0.757 | 0.291 | 0.131 | 0.764 | 0.735 | 0.612 | 0.261 | 0.137 | 0.596 | 0.592 | 0.629 | – | 0.592
NCI-H23 | 0.609 | 0.584 | 0.55 | 0.437 | 0.48 | 1.09 | 0.906 | 0.542 | 0.208 | 0.219 | 0.664 | 0.745 | 0.289 | 0.172 | 0.192 | 0.48 | 0.584 | 0.499 | 0.576 | 0.43
NCI-H322M | 0.924 | 1.06 | 0.79 | – | 0.877 | 1.28 | 1.35 | 1.12 | 1.43 | 0.264 | 0.901 | 0.891 | 0.48 | 0.42 | 0.537 | 0.471 | 0.457 | 0.503 | 0.429 | 0.434
NCI-H441 | 0.642 | 0.719 | 0.867 | 0.673 | 0.509 | – | 0.848 | 0.218 | 0.15 | 0.0844 | 0.971 | 0.82 | 0.416 | 0.246 | 0.236 | 0.233 | 0.243 | 0.205 | 0.203 | 0.194
NCI-H460 | 1.03 | 1.06 | 0.077 | 0.567 | 0.0138 | 0.893 | 1.15 | 0.18 | 0.0575 | 0.0265 | 0.552 | 1.09 | 0.445 | 0.0405 | 0.0422 | 0.221 | 0.0725 | 0.0509 | 0.0722 | 0.0229
NCI-H520 | 0.736 | 0.925 | 0.777 | 0.336 | 0.531 | 0.681 | 0.579 | 0.389 | 0.186 | 0.208 | 0.815 | 0.709 | 0.51 | 0.192 | 0.248 | 0.219 | 0.212 | 0.25 | 0.247 | 0.176
NCI-H647 | 1.02 | 1.18 | 1.05 | 1.06 | 0.401 | 1.15 | 1.08 | 0.439 | 0.169 | 0.128 | 0.76 | 0.603 | 0.3 | 0.128 | 0.0744 | 0.413 | 0.356 | 0.353 | 0.414 | 0.167
NCI-H650 | 0.666 | 0.961 | 0.668 | 0.309 | 0.631 | 0.413 | 0.748 | 0.606 | 0.49 | 0.355 | 0.385 | 0.445 | 0.349 | 0.366 | 0.133 | 0.319 | 0.362 | 0.334 | 0.336 | 0.323
NCI-H661 | 1.01 | 1.08 | 1.02 | 0.615 | 0.944 | 0.968 | 0.718 | 0.719 | 0.925 | 0.276 | 0.835 | 0.714 | 0.455 | 0.248 | 0.2 | 0.418 | 0.374 | 0.368 | 0.367 | 0.337
NCI-H727 | 0.695 | 0.835 | 0.692 | 0.767 | 0.703 | 0.841 | 0.923 | 0.532 | 0.38 | 0.359 | 1.04 | 1.19 | 0.856 | 0.808 | 0.787 | 0.601 | 0.601 | 0.717 | 0.65 | 0.637
NCI-H838 | 0.973 | 0.87 | 0.843 | 0.347 | 0.641 | 0.858 | 0.744 | 0.425 | 0.333 | 0.254 | 0.719 | 0.766 | 0.363 | 0.413 | 0.324 | 0.231 | 0.23 | 0.224 | 0.212 | 0.253
NCI-H1355 | 1.06 | 1.24 | 1.04 | 1.07 | 1.09 | 1.42 | 1.24 | 0.833 | 0.224 | 0.256 | 0.75 | 0.651 | 0.45 | 0.433 | 0.231 | 0.424 | 0.467 | 0.41 | 0.417 | 0.388
NCI-H1437 | 1 | 0.948 | – | 0.885 | 0.791 | 0.486 | 0.383 | 0.332 | 0.0977 | 0.196 | 0.842 | 0.81 | 0.432 | 0.251 | 0.263 | 0.278 | 0.328 | 0.346 | 0.308 | 0.279
NCI-H1650 | 1.08 | 0.996 | – | 0.948 | 0.149 | 0.205 | 0.196 | 0.189 | 0.166 | 0.197 | 0.541 | 0.724 | 0.377 | 0.199 | 0.193 | 0.374 | 0.364 | 0.35 | 0.289 | 0.151
NCI-H1651 | 0.829 | 0.862 | 0.76 | 0.967 | 0.812 | 0.828 | 0.968 | 0.404 | 0.516 | 0.153 | 0.583 | 0.602 | 0.504 | 0.299 | 0.168 | 0.455 | 0.517 | 0.536 | 0.513 | 0.526
NCI-H1666 | 1.03 | 0.838 | – | 1 | 0.618 | 0.667 | 0.804 | 0.641 | 0.257 | 0.169 | 1.03 | 1.01 | 0.805 | 0.908 | 0.832 | 0.63 | 0.624 | 0.678 | 0.626 | 0.572
NCI-H1734 | 0.666 | 0.82 | 0.742 | 0.536 | 0.623 | 1.22 | 1.17 | 0.385 | 0.211 | 0.259 | 0.879 | 0.781 | 0.454 | 0.301 | 0.102 | 0.325 | 0.391 | 0.34 | 0.317 | 0.292
NCI-H1755 | 0.921 | 0.937 | 0.895 | 0.842 | 0.833 | 1.16 | 1.07 | 0.454 | 0.358 | 0.177 | 0.829 | 0.781 | 0.59 | 0.408 | 0.225 | 0.434 | 0.449 | 0.431 | 0.447 | 0.466
NCI-H1915 | 0.937 | 0.934 | 0.892 | 0.888 | 0.902 | 0.833 | 1 | 0.396 | 0.738 | 0.183 | 0.496 | 0.509 | 0.339 | 0.334 | 0.115 | 0.542 | 0.534 | 0.564 | 0.53 | 0.543
NCI-H1975 | 1.13 | 0.986 | 0.821 | 1.08 | 0.462 | 0.371 | 0.442 | 0.345 | 0.201 | 0.213 | 0.723 | 0.685 | 0.493 | 0.209 | 0.248 | 0.788 | 0.553 | 0.665 | 0.826 | 0.382
NCI-H1993 | 0.972 | 0.819 | 0.862 | 0.822 | 0.825 | 1.03 | 1.28 | 0.578 | 0.506 | 0.517 | 0.75 | 0.696 | 0.582 | 0.313 | 0.498 | 0.686 | 0.627 | 0.699 | 0.583 | 0.614
NCI-H2009 | 1.07 | 1.02 | 1.09 | 1.02 | 0.697 | 0.973 | 0.878 | 0.771 | 0.105 | 0.0845 | 0.705 | 0.784 | 0.544 | 0.253 | 0.113 | 0.214 | 0.201 | 0.272 | 0.215 | 0.16
NCI-H2023 | 0.584 | 0.558 | – | 0.391 | 0.0858 | 1.02 | 0.97 | 0.843 | 0.114 | 0.081 | 0.7 | 0.738 | 0.464 | 0.127 | 0.104 | 0.413 | 0.373 | – | 0.309 | 0.0908
NCI-H2085 | 0.908 | 0.951 | 0.833 | 0.785 | 0.555 | 1.03 | 1.09 | 0.757 | 0.491 | 0.386 | 0.825 | 0.902 | 0.617 | 0.376 | 0.362 | 0.453 | 0.466 | 0.477 | 0.454 | 0.457
